The structures appear in SMILES notation. Like-named read-outs stand apart in the source and are kept apart here.

In this assay the target is human recombinant ATX (Homo sapiens, UniProt Q13822). The assay is described as follows: Autotaxin (ATX) activity Quanta Red assay. It counts as biochemical. Summed up: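 Recombinant human ATX reaction stopped after 2 h with Quanta Red stop solution; fluorescence read at […]. Controls with DMSO, with and without ATX; IC50 in duplicate.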

The mark [1] stands for this setting: read-out: Activity (ATX activity, Quanta Red assay; IC50).
Where [2] appears, read: human recombinant ATX 0.8 μg/mL, 2 hours at room temperature, IC50 determined in duplicate, read-out: Activity (ATX activity, Quanta Red assay; IC50).
Setting [3] is: Table 2: additional compounds tested for ATX activity (Quanta Red Assay), read-out: Activity.

For the compound `COc1ccc(CNC(=O)CCc2nc3cc(C)cnc3n2Cc2ccc(F)cc2)cc1` [Example 109, 3-[3-(4-Fluoro-benzyl)-6-methyl-3H-imidazo[4,5-b]pyridin-2-yl]-N-(4-methoxy-benzyl)-propionamide], the IC50 under setting [1] was 185 nM.
Regarding `COc1ccc(Cn2c(CCC(=O)N[C@@H](C)c3ccc(Cl)cc3)nc3cccnc32)cc1` [Example 84, N-[(S)-1-(4-Chloro-phenyl)-ethyl]-3-[3-(4-methoxy-benzyl)-3H-imidazo[4,5-b]pyridin-2-yl]-propionamide], under setting [2], the IC50 worked out at 3 nM.
As for `O=C(CCc1nc2ccncc2n1Cc1ccc(OC(F)(F)F)cc1)NCc1ccc(Cl)cc1` [Example 129, N-(4-Chloro-benzyl)-3-[3-(4-trifluoromethoxy-benzyl)-3H-imidazo[4,5-c]pyridin-2-yl]-propionamide], the IC50 under setting [1] came out at 20 nM.
On the same count and under the same terms, next, `C[C@H](NC(=O)CCc1nc2cccnc2n1Cc1ccc(F)cc1)c1ccc(N2CCOCC2)cc1` [Example 185, 3-[3-(4-Fluoro-benzyl)-3H-imidazo[4,5-b]pyridin-2-yl]-N-[(S)-1-(4-morpholin-4-yl-phenyl)-ethyl]-propionamide]: 13 nM; `O=C(CCc1nc2cccnc2n1Cc1cccc(OC(F)(F)F)c1)NCc1cccc(OC(F)(F)F)c1` [Example 6, N-(3-Trifluoromethoxy-benzyl)-3-[3-(3-trifluoromethoxy-benzyl)-3H-imidazo[4,5-b]pyridin-2-yl]-propionamide]: 476 nM.
The same measure, in the same setting: next, `O=C(CCc1nc2cccnc2n1Cc1ccc(OC(F)(F)F)cc1)NCc1ccc(F)cc1` [Example 30, N-(4-Fluoro-benzyl)-3-[3-(4-trifluoromethoxy-benzyl)-3H-imidazo[4,5-b]pyridin-2-yl]-propionamide]: 5 nM.
In the case of `C[C@@H](NC(=O)CCc1nc2cccnc2n1Cc1ccccc1)c1ccccc1` [Example 4, 3-(3-Benzyl-3H-imidazo[4,5-b]pyridin-2-yl)-N-((R)-1-phenyl-ethyl)-propionamide], the IC50 under setting [2] came out at 2630 nM.
For the compound `C[C@H](NC(=O)CCc1nc2cccnc2n1Cc1ccc(F)c(F)c1)c1ccc(N2CCN(C)CC2)cc1` [Example 182], the IC50 under setting [1] came to 8 nM.
For the compound `COc1ccc(Cn2c(CCC(=O)NCc3ccc(F)cc3)nc3cccnc32)cc1` [Example 219, N-(4-Fluoro-benzyl)-3-[3-(4-methoxy-benzyl)-3H-imidazo[4,5-b]pyridin-2-yl]-propionamide], the IC50 under setting [3] stood at 89 nM.
Turning to `O=C(CCc1nc2cccnc2n1Cc1ccc(F)c(F)c1)NC(CO)c1ccc(OC(F)(F)F)cc1` (stereo not drawn) [Example 39, 3-[3-(3,4-Difluoro-benzyl)-3H-imidazo[4,5-b]pyridin-2-yl]-N-[2-hydroxy-1-(4-trifluoromethoxy-phenyl)-ethyl]-propionamide], the IC50 under setting [1] worked out at 7 nM.
Turning to `COc1ccc(Cn2c(CCC(=O)NCc3ccccc3C)nc3cccnc32)cc1` [Example 106, 3-[3-(4-Methoxy-benzyl)-3H-imidazo[4,5-b]pyridin-2-yl]-N-(2-methyl-benzyl)-propionamide], the IC50 under setting [1] stood at 98 nM.
Still for that read-out and setting: as for `COc1ccc(Cn2c(CCC(=O)N[C@H](C)c3ccccc3)nc3cccnc32)cc1` [Example 112, 3-[3-(4-Methoxy-benzyl)-3H-imidazo[4,5-b]pyridin-2-yl]-N-((R)-1-phenyl-ethyl)-propionamide], the figure is 1060 nM; as for `CC(C)(C)OC(=O)N1CCC[C@H](CNC(=O)CCc2nc3cccnc3n2Cc2ccc(OC(F)(F)F)cc2)C1` [Example 66, (R)-3-({3-[3-(4-Trifluoromethoxy-benzyl)-3H-imidazo[4,5-b]pyridin-2-yl]-propionylamino}-methyl)-piperidine-1-carboxylic acid tert-butyl ester], 162 nM.
On to `O=C(CCc1nc2cccnc2n1Cc1ccc(F)cc1)NC(CO)c1ccc(F)cc1` (stereo not drawn) [Example 47, 3-[3-(4-Fluoro-benzyl)-3H-imidazo[4,5-b]pyridin-2-yl]-N-[1-(4-fluoro-phenyl)-2-hydroxy-ethyl]-propionamide], for which, under setting [1], the IC50 was found to be 19 nM.
Turning to `O=C(CCc1nc2cccnc2n1Cc1ccc(OC(F)(F)F)cc1)NC(CO)c1ccc(OC(F)(F)F)cc1` (stereo not drawn) [Example 20, N-[2-Hydroxy-1-(4-trifluoromethoxy-phenyl)-ethyl]-3-[3-(4-trifluoromethoxy-benzyl)-3H-imidazo[4,5-b]pyridin-2-yl]-propionamide], under setting [1], the IC50 turned out to be 3 nM.
The same measure, in the same setting: as for `C[C@H](NC(=O)CCc1nc2cccnc2n1Cc1ccc(F)c(F)c1)c1ccc(N2CC[C@@H](O)C2)cc1` [Example 190, 3-[3-(3,4-Difluoro-benzyl)-3H-imidazo[4,5-b]pyridin-2-yl]-N-{(S)-1-[4-((R)-3-hydroxy-pyrrolidin-1-yl)-phenyl]-ethyl}-propionamide], the figure is 20 nM.
The same measure, in the same setting: next, `COc1ccc(Cn2c(CCC(=O)N[C@@H](C)c3ccc(C)cc3)nc3cccnc32)cc1` [Example 90, 3-[3-(4-Methoxy-benzyl)-3H-imidazo[4,5-b]pyridin-2-yl]-N-((S)-1-p-tolyl-ethyl)-propionamide]: 9 nM; `O=C(CCc1nc2cccnc2n1Cc1ccc(C(F)(F)F)cc1)NC(CO)c1ccc(OC(F)(F)F)cc1` (stereo not drawn) [Example 32, N-[2-Hydroxy-1-(4-trifluoromethoxy-phenyl)-ethyl]-3-[3-(4-trifluoromethyl-benzyl)-3H-imidazo[4,5-b]pyridin-2-yl]-propionamide]: 6 nM; `CCC[C@H](NC(=O)CCc1nc2ccncc2n1Cc1ccc(F)cc1)c1ccccc1` [Example 134, 3-[3-(4-Fluoro-benzyl)-3H-imidazo[4,5-c]pyridin-2-yl]-N-((S)-1-phenyl-butyl)-propionamide]: 133 nM.
As for `COc1ccc(Cn2c(CCC(=O)NCCc3ccccc3)nc3cccnc32)cc1` [Example 237, 3-[3-(4-Methoxy-benzyl)-3H-imidazo[4,5-b]pyridin-2-yl]-N-phenethyl-propionamide, reference compound], the IC50 (Table 3: commercially available compounds tested for Autotaxin activity (Quanta Red assay), read-out: Activity) was 227 nM.
As for `O=C(CCc1nc2cccnc2n1Cc1cccs1)N[C@H](Cc1ccccc1)C(=O)O` [Example 202, (R)-3-Phenyl-2-[3-(3-thiophen-2-ylmethyl-3H-imidazo[4,5-b]pyridin-2-yl)-propionylamino]-propionic acid], the IC50 under setting [1] amounted to 819 nM.
Take `C[C@H](NC(=O)CSc1nc2cccnc2n1Cc1ccc(F)cc1)c1ccc(F)cc1` [Example 146, 2-[3-(4-Fluoro-benzyl)-3H-imidazo[4,5-b]pyridin-2-ylsulfanyl]-N-[(S)-1-(4-fluoro-phenyl)-ethyl]-acetamide]: the IC50 under setting [1] worked out at 3 nM.
On to `O=C(CSc1nc2cccnc2n1Cc1ccc(OC(F)(F)F)cc1)N[C@@H](CO)c1ccccc1` [Example 142, N-((R)-2-Hydroxy-1-phenyl-ethyl)-2-[3-(4-trifluoromethoxy-benzyl)-3H-imidazo[4,5-b]pyridin-2-ylsulfanyl]-acetamide], for which the IC50 under setting [1] was 1 nM.
For the compound `COc1ccc(CNC(=O)CCc2nc3cccnc3n2Cc2ccc(F)cc2)cc1` [Example 97, 3-[3-(4-Fluoro-benzyl)-3H-imidazo[4,5-b]pyridin-2-yl]-N-(4-methoxy-benzyl)-propionamide], under setting [1], the IC50 stood at 40 nM.
Same read-out and setting: next, `O=C(CCc1nc2cccnc2n1Cc1ccc(F)cc1)NCc1ccc(F)cc1` [Example 94, N-(4-Fluoro-benzyl)-3-[3-(4-fluoro-benzyl)-3H-imidazo[4,5-b]pyridin-2-yl]-propionamide]: 25 nM.
Take `COc1ccc(Cn2c(CCC(=O)NCCc3cccc(C)c3)nc3cccnc32)cc1` [Example 229, 3-[3-(4-Methoxy-benzyl)-3H-imidazo[4,5-b]pyridin-2-yl]-N-(2-m-tolyl-ethyl)-propionamide]: the IC50 under setting [3] is 466 nM.
Turning to `O=C(CCc1nc2cccnc2n1Cc1ccc(F)c(F)c1)N[C@@H]1c2ccccc2C[C@@H]1O` [Example 46, 3-[3-(3,4-Difluoro-benzyl)-3H-imidazo[4,5-b]pyridin-2-yl]-N-((1R,2S)-2-hydroxy-indan-1-yl)-propionamide], under setting [1], the IC50 turned out to be 18 nM.
`O=C(CCc1nc2cccnc2n1Cc1ccc(F)c(F)c1)NC(CO)c1ccc(F)cc1` (stereo not drawn) [Example 50, 3-[3-(3,4-Difluoro-benzyl)-3H-imidazo[4,5-b]pyridin-2-yl]-N-[1-(4-fluoro-phenyl)-2-hydroxy-ethyl]-propionamide]: the IC50 under setting [1] came out at 22 nM.
For the compound `C[C@H](NC(=O)CCc1nc2ccncc2n1Cc1ccc(OC(F)(F)F)cc1)c1ccc(N2CCN(C)CC2)cc1` [Example 125, N-{(S)-1-[4-(4-Methyl-piperazin-1-yl)-phenyl]-ethyl}-3-[3-(4-trifluoromethoxy-benzyl)-3H-imidazo[4,5-c]pyridin-2-yl]-propionamide], the IC50 under setting [1] was determined as 9 nM.
Turning to `COc1ccc([C@H](C)NC(=O)NCc2nc3cccnc3n2Cc2ccc(F)cc2)cc1` [Example 159, 1-[3-(4-Fluoro-benzyl)-3H-imidazo[4,5-b]pyridin-2-ylmethyl]-3-[(S)-1-(4-methoxy-phenyl)-ethyl]-urea], the IC50 under setting [1] is 42 nM.
As to `C[C@H](NC(=O)CCc1nc2cc(Br)cnc2n1Cc1ccc(OC(F)(F)F)cc1)c1ccc(Cl)cc1` [Example 61], under setting [1], the IC50 was found to be 100 nM.
Consider `C[C@H](NC(=O)CCc1cc2cccnc2n1Cc1ccc(Cl)cc1)c1ccc(F)cc1` [Example 138, 3-[1-(4-Chloro-benzyl)-1H-pyrrolo[2,3-b]pyridin-2-yl]-N-[(S)-1-(4-fluoro-phenyl)-ethyl]-propionamide], for which the IC50 under setting [1] came out at 10 nM.
Regarding `COc1ccc(CNC(=O)CCc2nc3cc(C)cnc3n2Cc2ccc(OC(F)(F)F)cc2)cc1F` [Example 52, N-(3-Fluoro-4-methoxy-benzyl)-3-[6-methyl-3-(4-trifluoromethoxy-benzyl)-3H-imidazo[4,5-b]pyridin-2-yl]-propionamide], the IC50 under setting [1] came to 29 nM.

Source of the values: patent publication US11453666B2, “Autotaxin inhibitory compounds” (Cancer Research Technology Limited, priority 2015, dated 2022).
